Laboratory results from ChEMBL document CHEMBL4765241, “Identification and Preclinical Pharmacology of ((1 R,3 S)-1-Amino-3-(( S)-6-(2-methoxyphenethyl)-5,6,7,8-tetrahydronaphthalen-2-yl)cyclopentyl)methanol (BMS-986166): A Differentiated Sphingosine-1-phosphate Receptor 1 (S1P) Modulator Advanced into Clinical Trials” (J Med Chem, 2019).

Legend:
[1] = system: Rattus norvegicus; assay: Reduction in circulating lymphocytes in Lewis rat blood at 2 mg/kg, po measured at 4 hrs by hematology analyzer based analysis; format: functional; set-up: scale not given: the % may be the effect or the level left
[2] = system: Rattus norvegicus; assay: Reduction in circulating lymphocytes in Lewis rat blood at 2 mg/kg, po measured at 24 hrs by hematology analyzer based analysis; format: functional; set-up: scale not given: the % may be the effect or the level left
[3] = Drug metabolism in pH 7.4 Tris-HCl buffer assessed as amount of phosphate ester metabolite formation at […] in presence of sphingosine kinase 1,2 and Mg-ATP incubated for 30 mins by TLC based analysis relative to fingolimod
[4] = Cardiotoxicity in human iPSC derived cardiomyocytes assessed as reduction in beating rate at 10 nM measured over 2 hrs by multi-electrode array relative to control; format: toxicity, cell-based; set-up: scale not given: the % may be the effect or the level left; conditions: stem cell-derived cardiomyocyte, 0.01 µM
[5] = Cardiotoxicity in human iPSC derived cardiomyocytes assessed as reduction in beating rate at 1 nM measured over 2 hrs by multi-electrode array relative to control; format: toxicity, cell-based; set-up: scale not given: the % may be the effect or the level left; conditions: stem cell-derived cardiomyocyte, 0.001 µM
[6] = Drug metabolism in Balb/c mouse blood assessed as concentration of phosphate ester metabolite formation at 1 mg/kg, po measured at 24 hrs by LC-MS/MS analysis; format: ADME, organism-based; conditions: in vivo, BLD = below limit of detection
[7] = system: Mus musculus; assay: Reduction in circulating lymphocytes in Balb/c mouse blood at 30 mg/kg, po measured at 24 hrs by hematology analyzer based analysis; format: functional; set-up: scale not given: the % may be the effect or the level left; conditions: 30 mg/kg, 24 h
[8] = Drug metabolism in Balb/c mouse blood assessed as phosphate ester metabolite formation at 30 mg/kg, po measured at 4 hrs by LC-MS/MS analysis; format: ADME, organism-based; conditions: in vivo
[9] = Drug metabolism in Balb/c mouse blood assessed as concentration of parent compound at 30 mg/kg, po measured at 4 hrs by LC-MS/MS analysis; format: ADME, organism-based; conditions: read-out: Ct
[10] = Drug metabolism in Balb/c mouse blood assessed as concentration of parent compound at 30 mg/kg, po measured at 24 hrs by LC-MS/MS analysis; format: ADME, organism-based; conditions: in vivo, 30 mg/kg, 24 h, 30 mg/kg, 24 h, read-out: Ct
[11] = Ratio of drug metabolism in Balb/c mouse blood assessed as phosphate ester metabolite to parent drug at 30 mg/kg, po measured at 24 hrs by LC-MS/MS analysis; format: ADME, organism-based; conditions: in vivo
[12] = system: Mus musculus; assay: Reduction in circulating lymphocytes in Balb/c mouse blood at 1 mg/kg, po measured at 24 hrs by hematology analyzer based analysis; format: functional; set-up: scale not given: the % may be the effect or the level left
[13] = system: Mus musculus; assay: Reduction in circulating lymphocytes in Balb/c mouse blood at 30 mg/kg, po measured at 4 hrs by hematology analyzer based analysis; format: functional; set-up: scale not given: the % may be the effect or the level left; conditions: 30 mg/kg, 4 h
[14] = Drug metabolism in Balb/c mouse blood assessed as concentration of phosphate ester metabolite formation at 30 mg/kg, po measured at 24 hrs by LC-MS/MS analysis; format: ADME, organism-based; conditions: in vivo
[15] = Drug metabolism in Balb/c mouse blood assessed as concentration of parent compound at 1 mg/kg, po measured at 4 hrs by LC-MS/MS analysis; format: ADME, organism-based; conditions: read-out: Ct; for concentration: in vivo, 1 mg/kg, 4 h
[16] = Drug metabolism in Balb/c mouse blood assessed as concentration of parent compound at 1 mg/kg, po measured at 24 hrs by LC-MS/MS analysis; format: ADME, organism-based; conditions: read-out: Ct; for concentration at 24 h: Balb/c, blood
[17] = system: Mus musculus; assay: Reduction in circulating lymphocytes in Balb/c mouse blood at 1 mg/kg, po measured at 4 hrs by hematology analyzer based analysis; format: functional; set-up: scale not given: the % may be the effect or the level left
[18] = Drug metabolism in Balb/c mouse blood assessed as concentration of phosphate ester metabolite formation at 1 mg/kg, po measured at 4 hrs by LC-MS/MS analysis; format: ADME, organism-based; conditions: in vivo
[19] = system: Rattus norvegicus; assay: Drug metabolism in Lewis rat blood assessed as concentration of phosphate ester metabolite formation at 2 mg/kg, po measured at 4 hrs by LC-MS/MS analysis; conditions: in vivo
[20] = Ratio of drug metabolism in Lewis rat blood assessed as phosphate ester metabolite to parent drug at 2 mg/kg, po measured at 24 hrs by LC-MS/MS analysis; format: ADME, organism-based; conditions: in vivo
[21] = Drug metabolism in Lewis rat blood assessed as concentration of parent compound at 2 mg/kg, po measured at 4 hrs by LC-MS/MS analysis; format: ADME, organism-based; conditions: read-out: Ct
[22] = Pulmonary toxicity in Lewis rat assessed as elevation of BAL protein level at 10 mg/kg by advia1800 chemistry analyzer; format: organism-based; conditions: in vivo
[23] = Half-life in Lewis rat at 2 mg/kg, po measured over 72 hrs by LC-MS/MS analysis; format: ADME, organism-based; conditions: in vivo
[24] = Drug metabolism in Lewis rat blood assessed as concentration of parent compound at 2 mg/kg, po measured at 24 hrs by LC-MS/MS analysis; format: ADME, organism-based; conditions: read-out: Ct
[25] = Pulmonary toxicity in Lewis rat assessed as elevation of BAL protein level at 3 mg/kg by advia1800 chemistry analyzer; format: organism-based; conditions: in vivo
[26] = system: Rattus norvegicus; assay: Reduction in circulating lymphocytes in Lewis rat blood assessed as effective dose after oral dosing measured at 24 hrs by hematology analyzer based analysis; format: functional
[27] = Drug metabolism in Balb/c mouse blood assessed as concentration of parent compound at 50 mg/kg, po measured at 4 hrs by LC-MS/MS analysis; format: ADME, organism-based; conditions: read-out: Ct
[28] = Drug metabolism in Balb/c mouse blood assessed as concentration of parent compound at 50 mg/kg, po measured at 24 hrs by LC-MS/MS analysis; format: ADME, organism-based; conditions: read-out: Ct
[29] = Drug metabolism in Balb/c mouse blood assessed as concentration of phosphate ester metabolite formation at 50 mg/kg, po measured at 24 hrs by LC-MS/MS analysis; format: ADME, organism-based; conditions: in vivo
[30] = system: Mus musculus; assay: Reduction in circulating lymphocytes in Balb/c mouse blood at 50 mg/kg, po measured at 24 hrs by hematology analyzer based analysis; format: functional; set-up: scale not given: the % may be the effect or the level left
[31] = Ratio of drug metabolism in Balb/c mouse blood assessed as phosphate ester metabolite to parent drug at 30 mg/kg, po measured at 24 hrs by LC-MS/MS analysis; conditions: in vivo
[32] = Drug metabolism in Balb/c mouse blood assessed as concentration of phosphate ester metabolite formation at 50 mg/kg, po measured at 4 hrs by LC-MS/MS analysis; format: ADME, organism-based; conditions: in vivo
[33] = system: Mus musculus; assay: Reduction in circulating lymphocytes in Balb/c mouse blood at 50 mg/kg, po measured at 4 hrs by hematology analyzer based analysis; format: functional; set-up: scale not given: the % may be the effect or the level left

## COc1ccc(CC2CCc3cc([C@H]4CC[C@](N)(CO)C4)ccc3C2)cc1 (stereo in doubt; 13a)
[1]
  Activity: <10%
[2]; 2 mg/kg, 24 h
  Activity: 52%

## N[C@]1(CO)CC[C@H](c2ccc3c(c2)CCC(CCc2ccncc2)C3)C1 (single isomer, unassigned)
[3]
  Drug metabolism: 0%

## N[C@]1(CO)CC[C@H](c2ccc3c(c2)CC[C@H](CCc2ncccn2)C3)C1
[3]
  Drug metabolism: 6%

## Cn1cncc1CCC1CCc2cc([C@H]3CC[C@](N)(CO)C3)ccc2C1 (stereo partly specified)
[3]
  Drug metabolism: 5%

## COc1cccc(CC2CCc3cc([C@H]4CC[C@](N)(CO)C4)ccc3C2)c1 (stereo in doubt; 12b)
[1]; 2 mg/kg, 4 h
  Activity: <10%
[2]; 2 mg/kg, 24 h
  Activity: 45%

## COc1cccc(CC[C@H]2CCc3cc([C@H]4CC[C@](N)(COP(=O)(O)O)C4)ccc3C2)c1
[4]
  Activity: 20%
[5]
  Activity: 23%

## N[C@]1(CO)CC[C@H](c2ccc3c(c2)CCC(c2ccccc2)C3)C1 (stereo in doubt; 8a)
[6]
  Drug metabolism: Bld
[7]
  Activity: 88%
[8]
  Drug metabolism: 43 nM
[9]; Balb/c, blood
  concentration at 4 h: 1500 nM
[10]
  concentration: 760 nM
[11]
  Ratio: 0.14
[12]; 1 mg/kg, 24 h
  Activity: <10%
[13]
  Activity: 67%
[14]
  Drug metabolism: 110 nM
[15]
  concentration: 44 nM
[16]
  concentration at 24 h: 27 nM
[17]
  Activity: <10%
[18]; BLD = below limit of detection
  Drug metabolism: Bld

## COc1ccnc(CC[C@H]2CCc3cc([C@H]4CC[C@](N)(CO)C4)ccc3C2)c1
[3]
  Drug metabolism: 3%

## N[C@]1(CO)CC[C@H](c2ccc3c(c2)CC[C@H](CCc2ccccn2)C3)C1
[3]
  Drug metabolism: 1.8%

## COc1cccc(CC[C@@H]2CCc3cc([C@H]4CC[C@](N)(COP(=O)(O)O)C4)ccc3C2)c1
[4]
  Activity: 31%
[5]
  Activity: 15%

## Cn1ccc(CC[C@@H]2CCc3cc([C@H]4CC[C@](N)(CO)C4)ccc3C2)n1
[3]
  Drug metabolism: 8%

## N[C@]1(CO)CC[C@H](c2ccc3c(c2)CCC(c2ccccc2)C3)C1 (stereo in doubt; 8b)
[7]
  Activity: 84%
[8]
  Drug metabolism: 36 nM
[9]; in vivo, 30 mg/kg, 4 h, 30 mg/kg, 4 h
  concentration: 750 nM
[10]
  concentration: 300 nM
[11]
  Ratio: 0.16
[12]; 1 mg/kg, 24 h
  Activity: 36%
[13]
  Activity: 72%
[14]
  Drug metabolism: 49 nM
[15]
  concentration: 16 nM
[16]; in vivo, 1 mg/kg, 24 h, 1 mg/kg, 24 h
  concentration: 16 nM

## N[C@]1(CO)CC[C@H](c2ccc3c(c2)CC[C@@H](CCc2ccccn2)C3)C1
[3]
  Drug metabolism: 4%

## COc1cccc(CC[C@@H]2CCc3cc([C@H]4CC[C@](N)(CO)C4)ccc3C2)c1
[19]
  Drug metabolism: 160 nM
[20]
  Ratio: 6.3
[21]
  concentration at 4 h: 90 nM
[22]
  Activity: 12.7 mg/dL
[23]
  half-life: 31 h
[1]
  Activity: 69%
[24]
  concentration at 24 h: 80 nM
[25]
  Activity: 10 mg/dL
[26]
  ED50: 0.05 mg/kg
[2]
  Activity: 84%

## N[C@]1(CO)CC[C@H](c2ccc3c(c2)CC[C@@H](CCc2cccnc2)C3)C1
[3]
  Drug metabolism: 3%

## COc1ccccc1CC[C@H]1CCc2cc([C@H]3CC[C@](N)(COP(=O)(O)O)C3)ccc2C1
[4]
  Activity: 18%
[5]
  Activity: 17%

## COc1ccc(CC[C@@H]2CCc3cc([C@H]4CC[C@](N)(COP(=O)(O)O)C4)ccc3C2)cc1
[4]
  Activity: 35%
[5]
  Activity: 27%

## COc1cccc(CC2CCc3cc([C@H]4CC[C@](N)(CO)C4)ccc3C2)c1 (stereo in doubt; 12a)
[19]
  Drug metabolism: 10 nM
[20]
  Ratio: 1
[21]
  concentration at 4 h: 50 nM
[23]
  half-life: 15 h
[1]; 2 mg/kg, 4 h
  Activity: 30%
[24]
  concentration at 24 h: 20 nM
[2]; 2 mg/kg, 24 h
  Activity: 73%

## Cn1cc(CC[C@@H]2CCc3cc([C@H]4CC[C@](N)(CO)C4)ccc3C2)cn1
[3]
  Drug metabolism: 6%

## N[C@]1(CO)CC[C@H](c2ccc3c(c2)CC[C@H](CCc2cccnc2)C3)C1
[3]
  Drug metabolism: 24%

## N[C@]1(CO)CC[C@H](c2ccc3c(c2)CC[C@@H](CCc2ncccn2)C3)C1
[3]
  Drug metabolism: 4%

## COc1ccc(CC2CCc3cc([C@H]4CC[C@](N)(CO)C4)ccc3C2)cc1 (stereo in doubt; 13b)
[19]
  Drug metabolism: 50 nM
[20]
  Ratio: 1.3
[21]
  concentration at 4 h: 90 nM
[23]
  half-life: 64 h
[24]
  concentration at 24 h: 60 nM
[2]; 2 mg/kg, 24 h
  Activity: 73%

## COc1ccccc1CC1CCc2cc([C@H]3CC[C@](N)(CO)C3)ccc2C1 (stereo partly specified)
[1]
  Activity: <10%
[2]
  Activity: 13%

## N[C@]1(CO)CC[C@H](c2ccc3c(c2)CC[C@@H](Cc2ccccc2)C3)C1
[27]
  concentration at 4 h: 2400 nM
[6]
  Drug metabolism: Bld
[28]
  concentration at 24 h: 530 nM
[29]
  Drug metabolism: 750 nM
[30]
  Activity: 84%
[31]
  Ratio: 1.4
[32]
  Drug metabolism: 1100 nM
[12]
  Activity: <10%
[33]
  Activity: 82%
[15]; Balb/c, blood
  concentration at 4 h: 12 nM
[16]
  concentration at 24 h: 5.6 nM
[17]
  Activity: <10%
[18]
  Drug metabolism: 5.6 nM

## N[C@]1(CO)CC[C@H](c2ccc3c(c2)CC[C@H](CCc2ccccc2)C3)C1
[19]
  Drug metabolism: 40 nM
[20]
  Ratio: 1.2
[21]
  concentration at 4 h: 230 nM
[23]
  half-life: > 75 h
[1]
  Activity: 11%
[24]
  concentration at 24 h: 300 nM
[2]
  Activity: 78%
